Patent US20150246938A1, “NOVEL OLEFIN DERIVATIVE” (SHIONOGI & CO., LTD., priority 2011, published 2015)

What follows are compounds tested against T1, recombinant human ACC2 (Homo sapiens, UniProt O00763) (assay: Measurement of inhibitory activity on human ACC2 (MALDI-TOF MS, acetyl CoA to malonyl CoA conversion)). Settings: inhibition activity on human ACC2, Table 79; read-out: IC50.
T1 construct: a cDNA encoding human ACC2 (27-2458) was cloned from human kidney cDNA library (Clontech); His-tag (N); made in house; host or cells: Sf-9 insect cells (Bac-to-Bac baculovirus)
T1 sequence (O00763 27-2458): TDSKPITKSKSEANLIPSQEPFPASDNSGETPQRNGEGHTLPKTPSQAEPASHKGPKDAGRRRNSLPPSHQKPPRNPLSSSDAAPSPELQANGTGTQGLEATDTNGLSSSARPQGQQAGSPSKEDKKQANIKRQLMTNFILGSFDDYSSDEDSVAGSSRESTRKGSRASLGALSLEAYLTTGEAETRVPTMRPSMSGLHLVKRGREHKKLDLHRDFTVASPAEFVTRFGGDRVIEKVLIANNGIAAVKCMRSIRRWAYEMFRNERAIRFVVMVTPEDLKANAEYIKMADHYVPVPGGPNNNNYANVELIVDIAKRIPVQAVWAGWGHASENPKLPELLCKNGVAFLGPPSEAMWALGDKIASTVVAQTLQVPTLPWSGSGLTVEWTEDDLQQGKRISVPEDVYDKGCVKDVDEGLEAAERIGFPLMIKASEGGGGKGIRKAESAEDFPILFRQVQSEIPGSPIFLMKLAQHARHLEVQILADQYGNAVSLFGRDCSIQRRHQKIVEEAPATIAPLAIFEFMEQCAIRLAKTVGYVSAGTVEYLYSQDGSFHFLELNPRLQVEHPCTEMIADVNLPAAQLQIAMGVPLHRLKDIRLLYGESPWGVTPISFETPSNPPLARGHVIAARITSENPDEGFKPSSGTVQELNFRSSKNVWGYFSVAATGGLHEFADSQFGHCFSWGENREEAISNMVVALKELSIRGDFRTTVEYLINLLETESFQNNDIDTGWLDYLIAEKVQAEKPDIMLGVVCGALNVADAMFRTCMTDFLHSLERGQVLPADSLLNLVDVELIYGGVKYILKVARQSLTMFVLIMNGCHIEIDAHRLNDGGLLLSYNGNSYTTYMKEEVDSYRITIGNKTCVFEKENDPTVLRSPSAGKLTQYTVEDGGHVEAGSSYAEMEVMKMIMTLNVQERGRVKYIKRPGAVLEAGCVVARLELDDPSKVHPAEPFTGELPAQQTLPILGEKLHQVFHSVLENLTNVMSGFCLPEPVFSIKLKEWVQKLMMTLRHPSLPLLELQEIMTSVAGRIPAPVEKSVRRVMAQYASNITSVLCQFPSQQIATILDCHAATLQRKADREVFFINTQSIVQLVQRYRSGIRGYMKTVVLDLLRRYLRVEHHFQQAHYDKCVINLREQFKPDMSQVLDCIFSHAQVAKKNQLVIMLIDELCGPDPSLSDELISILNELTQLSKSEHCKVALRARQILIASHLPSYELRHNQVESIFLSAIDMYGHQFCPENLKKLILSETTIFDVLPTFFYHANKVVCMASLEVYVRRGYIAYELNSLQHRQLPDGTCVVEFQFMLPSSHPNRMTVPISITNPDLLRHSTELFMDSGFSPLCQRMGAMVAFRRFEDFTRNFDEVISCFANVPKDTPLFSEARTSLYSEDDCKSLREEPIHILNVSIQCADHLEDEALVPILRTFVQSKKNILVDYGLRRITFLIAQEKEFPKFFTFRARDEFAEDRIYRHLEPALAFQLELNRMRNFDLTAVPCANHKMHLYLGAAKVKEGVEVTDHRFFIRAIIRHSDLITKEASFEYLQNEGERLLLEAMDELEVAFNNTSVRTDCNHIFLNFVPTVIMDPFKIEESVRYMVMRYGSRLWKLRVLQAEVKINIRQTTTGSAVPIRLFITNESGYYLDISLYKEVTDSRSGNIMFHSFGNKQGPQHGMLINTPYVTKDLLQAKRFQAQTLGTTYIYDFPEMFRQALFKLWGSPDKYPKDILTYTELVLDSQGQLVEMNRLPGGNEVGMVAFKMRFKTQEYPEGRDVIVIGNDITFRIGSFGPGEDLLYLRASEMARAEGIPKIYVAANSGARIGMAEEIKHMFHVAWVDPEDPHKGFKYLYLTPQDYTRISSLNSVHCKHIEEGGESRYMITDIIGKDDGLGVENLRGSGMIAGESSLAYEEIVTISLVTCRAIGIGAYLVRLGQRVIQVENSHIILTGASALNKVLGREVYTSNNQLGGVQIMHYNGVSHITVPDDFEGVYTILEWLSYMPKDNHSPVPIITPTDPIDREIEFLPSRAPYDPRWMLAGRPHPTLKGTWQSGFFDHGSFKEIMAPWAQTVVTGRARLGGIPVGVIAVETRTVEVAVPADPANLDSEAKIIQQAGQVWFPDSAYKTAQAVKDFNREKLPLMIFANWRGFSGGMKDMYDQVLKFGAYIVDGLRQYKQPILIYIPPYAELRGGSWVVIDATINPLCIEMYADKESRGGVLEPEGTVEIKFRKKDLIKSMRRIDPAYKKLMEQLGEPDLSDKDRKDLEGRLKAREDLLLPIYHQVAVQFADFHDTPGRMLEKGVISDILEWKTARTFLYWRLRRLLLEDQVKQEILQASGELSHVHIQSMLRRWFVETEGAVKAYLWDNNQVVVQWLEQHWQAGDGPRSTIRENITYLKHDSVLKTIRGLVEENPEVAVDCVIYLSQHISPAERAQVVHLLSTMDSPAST
Type: biochemical
For `CCCOc1ccc(Oc2ncc(/C=C/[C@H](C)NC(C)=O)s2)c(Cl)c1` [Compound I-2], the IC50 was 16 nM. Work on `CC(=O)N[C@@H](C)/C=C/c1cnc(Oc2ccc(OCC3CC3)cc2C#N)s1` [Compound I-6] yielded an IC50 of 78 nM. Compound `CC(=O)N[C@@H](C)/C=C/c1cnc(Oc2cccc(OCC3CC3)c2Cl)s1` [Compound I-7] has an IC50 of 31 nM. Work on `CC(=O)N[C@@H](C)/C=C/c1cnc(Oc2cccc(OC(C)C)c2C)s1` [Compound I-9] yielded an IC50 of 82 nM. `CCOc1ccc(Oc2ccc(/C=C/[C@H](C)NC(C)=O)cn2)c(Cl)c1` [Compound I-13] showed an IC50 of 52 nM. With `CC(=O)N[C@@H](C)/C=C/c1ccc(Oc2ccc(OCC3CC3)cc2Cl)nc1` [Compound I-14] the IC50 was 6.9 nM. `CCOc1ccc(COc2ccc(/C=C/[C@H](C)NC(C)=O)cn2)cc1` [Compound I-15] gave an IC50 of 71 nM. With `CCOc1ccc(Oc2ccc(/C=C/[C@H](C)NC(C)=O)cn2)cc1` [Compound I-16] the IC50 was 31 nM. `CC(=O)N[C@@H](C)/C=C/c1ccc(Oc2ccc(OCC3CC3)c(Cl)c2)nc1` [Compound I-23] was tested, and the IC50 was 5.2 nM. For `CC(=O)N[C@@H](C)/C=C/c1ccc(Oc2ccc(NCC3CC3)c(Cl)c2)nc1` [Compound I-24], the IC50 was 4.4 nM. Work on `COc1ccc(Cl)c(Oc2ccc(/C=C/[C@H](C)NC(C)=O)cn2)c1` [Compound I-27] yielded an IC50 of 1200 nM. `COc1cc(Cl)cc(Oc2ccc(/C=C/[C@H](C)NC(C)=O)cn2)c1` [Compound I-28] gave an IC50 of 97 nM. `COc1cccc(Oc2ccc(/C=C/[C@H](C)NC(C)=O)cn2)c1Cl` [Compound I-29] showed an IC50 of 94 nM. `CC(=O)N[C@@H](C)/C=C/c1ccc(Oc2ccc(N3CCCC3)cc2Cl)nc1` [Compound I-32] was tested, and the IC50 was 14 nM. Work on `CC(=O)N[C@@H](C)/C=C/c1ccc(Oc2ccc(OCC3CC3)nc2)nc1` [Compound I-33] yielded an IC50 of 12 nM. Compound `COc1cncc(Oc2ccc(/C=C/[C@H](C)NC(C)=O)cn2)c1` [Compound I-34] has an IC50 of 7100 nM. In the case of `CCOc1ccc(OCc2ccc(/C=C/[C@H](C)NC(C)=O)cn2)c(Cl)c1` [Compound I-35], the IC50 is reported as 1100 nM. `CC(=O)N[C@@H](C)/C=C/c1ccc(Oc2ccc(OCC(C)C)cc2Cl)nc1` [Compound I-36] was tested, and the IC50 was 6.5 nM. Work on `CC(=O)N[C@@H](C)/C=C/c1ccc(Oc2ccc(OC(C)C)cc2Cl)nc1` [Compound I-37] yielded an IC50 of 37 nM. For `CCCOc1ccc(Oc2ccc(/C=C/[C@H](C)NC(C)=O)cn2)c(Cl)c1` [Compound I-38], the IC50 was 9.1 nM. `CC(=O)N[C@@H](C)/C=C/c1ccc(Oc2ccc(OC3CCC3)cc2Cl)nc1` [Compound I-39] gave an IC50 of 11 nM. For `CC(=O)N[C@@H](C)/C=C/c1ccc(Oc2cc(Cl)cc(OCC3CC3)c2)nc1` [Compound I-43], the IC50 was 80 nM. Work on `CCOc1cc(Cl)cc(Oc2ccc(/C=C/[C@H](C)NC(C)=O)cn2)c1` [Compound I-45] yielded an IC50 of 83 nM. `CC(=O)N[C@@H](C)/C=C/c1ccc(Oc2cccc(OC(C)C)c2Cl)nc1` [Compound I-47] showed an IC50 of 25 nM. `CCOc1cccc(Oc2ccc(/C=C/[C@H](C)NC(C)=O)cn2)c1Cl` [Compound I-48] gave an IC50 of 37 nM. Compound `CC(=O)N[C@@H](C)/C=C/c1ccc(Oc2cccc(OC(C)C)c2)nc1` [Compound I-49] has an IC50 of 72 nM. With `CC(=O)N[C@@H](C)/C=C/c1cnc(Oc2ccc(OCC3CC3)cc2Cl)nc1` [Compound I-52] the IC50 was 54 nM. With `CC(=O)N[C@@H](C)/C=C/c1cnc(Oc2ccc(NC(=O)OC(C)(C)C)cc2Cl)nc1` [Compound I-53] the IC50 was 940 nM. Compound `CC(=O)N[C@@H](C)/C=C/c1cnc(Oc2ccc(NCC3CC3)cc2Cl)nc1` [Compound I-54] has an IC50 of 430 nM. With `CC(=O)N[C@@H](C)/C=C/c1cnc(Oc2ccc(NC(C)C)cc2Cl)nc1` [Compound I-55] the IC50 was 4500 nM. `CC(=O)N[C@@H](C)/C=C/c1ccc(Oc2ccc(OCC3CC3)cc2Cl)nn1` [Compound I-56] was tested, and the IC50 was 310 nM. With `CC(=O)N[C@@H](C)/C=C/c1ccc(Oc2ccc(OCC3CC3)cc2Cl)cc1` [Compound I-57] the IC50 was 2.2 nM. For `CC(=O)N[C@@H](C)/C=C/c1cnc(N2CCc3cc(OCC4CC4)ccc32)s1` [Compound I-59], the IC50 was 950 nM. Compound `CCOc1ccc(C(F)(F)c2ccc(/C=C/[C@H](C)NC(C)=O)cn2)c(Cl)c1` [Compound I-62] has an IC50 of 310 nM. Compound `CC(=O)N[C@@H](C)/C=C/c1cnn(Cc2ccc(OCC3CC3)cc2Cl)c1` [Compound I-63] has an IC50 of 830 nM. Work on `CC(=O)N[C@@H](C)/C=C/c1cnn(Cc2ccc(OCC3CC3)cc2)c1` [Compound I-64] yielded an IC50 of 5900 nM. `CC(=O)N[C@@H](C)/C=C/c1cnn(CCc2ccc(OCC3CC3)cc2)c1` [Compound I-66] gave an IC50 of 5700 nM. `CC(=O)N[C@@H](C)/C=C/c1cnn(Cc2ccc(OCC3CC3)cc2F)c1` [Compound I-67] gave an IC50 of 1200 nM. `CC(=O)N[C@@H](C)/C=C/c1cnn(Cc2c(Cl)cc(OCC3CC3)cc2Cl)c1` [Compound I-69] gave an IC50 of 470 nM. `CSCCC(=O)N[C@@H](C)/C=C/c1cnc(Oc2ccc(OCC3CC3)cc2Cl)s1` [Compound I-72] gave an IC50 of 230 nM. Compound `C[C@@H](/C=C/c1cnc(Oc2ccc(OCC3CC3)cc2Cl)s1)NC(=O)CC#N` [Compound I-73] has an IC50 of 53 nM. Compound `C[C@@H](/C=C/c1cnc(Oc2ccc(OCC3CC3)cc2Cl)s1)NC(=O)C1(C(N)=O)CC1` [Compound I-74] has an IC50 of 57 nM. `C[C@@H](/C=C/c1cnc(Oc2ccc(OCC3CC3)cc2Cl)s1)NC(=O)C1CC1` [Compound I-76] was tested, and the IC50 was 30 nM. `C[C@@H](/C=C/c1cnc(Oc2ccc(OCC3CC3)cc2Cl)s1)NC(=O)Cc1cccnc1` [Compound I-77] showed an IC50 of 48 nM. Compound `CC(=O)NCC(=O)N[C@@H](C)/C=C/c1cnc(Oc2ccc(OCC3CC3)cc2Cl)s1` [Compound I-78] has an IC50 of 550 nM. Work on `C[C@@H](/C=C/c1cnc(Oc2ccc(OCC3CC3)cc2Cl)s1)NC(=O)CC(F)(F)F` [Compound I-82] yielded an IC50 of 160 nM. For `C[C@@H](/C=C/c1cnc(Oc2ccc(OCC3CC3)cc2Cl)s1)NC(=O)C1(C)CC1` [Compound I-83], the IC50 was 48 nM. For `C[C@@H](/C=C/c1cnc(Oc2ccc(OCC3CC3)cc2Cl)s1)NC(=O)C1CCOCC1` [Compound I-84], the IC50 was 460 nM. `C[C@@H](/C=C/c1cnc(Oc2ccc(OCC3CC3)cc2Cl)s1)NC(=O)CCCN1CCCC1=O` [Compound I-86] showed an IC50 of 440 nM. `C[C@@H](/C=C/c1cnc(Oc2ccc(OCC3CC3)cc2Cl)s1)NC(=O)CCCn1cncn1` [Compound I-87] gave an IC50 of 350 nM. With `C[C@@H](/C=C/c1cnc(Oc2ccc(OCC3CC3)cc2Cl)s1)NC(=O)CCCN1CCCC1` [Compound I-88] the IC50 was 890 nM. `COC(=O)CCCC(=O)N[C@@H](C)/C=C/c1cnc(Oc2ccc(OCC3CC3)cc2Cl)s1` [Compound I-94] was tested, and the IC50 was 140 nM. `C[C@@H](/C=C/c1cnc(Oc2ccc(OCC3CC3)cc2Cl)s1)NC(=O)C1(C#N)CC1` [Compound I-97] was tested, and the IC50 was 120 nM. For `CC(C)COCC(=O)N[C@@H](C)/C=C/c1cnc(Oc2ccc(OCC3CC3)cc2Cl)s1` [Compound I-103], the IC50 was 970 nM. Work on `COCCOCC(=O)N[C@@H](C)/C=C/c1cnc(Oc2ccc(OCC3CC3)cc2Cl)s1` [Compound I-104] yielded an IC50 of 450 nM. `C[C@@H](/C=C/c1cnc(Oc2ccc(OCC3CC3)cc2Cl)s1)NC(=O)CN1C(=O)CCC1=O` [Compound I-105] was tested, and the IC50 was 200 nM. Compound `C[C@@H](/C=C/c1cnc(Oc2ccc(OCC3CC3)cc2Cl)s1)NC(=O)CCCCCCNC(=O)OC(C)(C)C` [Compound I-106] has an IC50 of 440 nM. In the case of `COC(=O)c1ccn(CC(=O)N[C@@H](C)/C=C/c2cnc(Oc3ccc(OCC4CC4)cc3Cl)s2)n1` [Compound I-113], the IC50 is reported as 480 nM. In the case of `C[C@@H](/C=C/c1cnc(Oc2ccc(OCC3CC3)cc2Cl)s1)NC(=O)CC(N)=O` [Compound I-116], the IC50 is reported as 150 nM. `CC(C)S(=O)(=O)NCCCCC(=O)N[C@@H](C)/C=C/c1cnc(Oc2ccc(OCC3CC3)cc2Cl)s1` [Compound I-117] gave an IC50 of 38 nM.

Same assay, conditions: inhibition activity on human ACC2, Table 80; read-out: IC50
`CC(C)S(=O)(=O)NCCCC(=O)N[C@@H](C)/C=C/c1cnc(Oc2ccc(OCC3CC3)cc2Cl)s1` [Compound I-119] showed an IC50 of 61 nM. `C[C@@H](/C=C/c1cnc(Oc2ccc(OCC3CC3)cc2Cl)s1)NC(=O)Cc1ccncc1` [Compound I-122] gave an IC50 of 150 nM. `C[C@@H](/C=C/c1cnc(Oc2ccc(OCC3CC3)cc2Cl)s1)NC(=O)Cn1ccnc1` [Compound I-123] gave an IC50 of 180 nM. Compound `CCN1CCN(CCC(=O)N[C@@H](C)/C=C/c2cnc(Oc3ccc(OCC4CC4)cc3Cl)s2)CC1` [Compound I-124] has an IC50 of 1400 nM. In the case of `C[C@@H](/C=C/c1cnc(Oc2ccc(OCC3CC3)cc2Cl)s1)NC(=O)CCO` [Compound I-125], the IC50 is reported as 320 nM. In the case of `C[C@@H](/C=C/c1cnc(Oc2ccc(OCC3CC3)cc2Cl)s1)NC(=O)[C@H]1CNC(=O)O1` [Compound I-133], the IC50 is reported as 920 nM. Compound `CC(C)S(=O)(=O)NCCC(=O)N[C@@H](C)/C=C/c1cnc(Oc2ccc(OCC3CC3)cc2Cl)s1` [Compound I-134] has an IC50 of 1800 nM. `CC(=O)Nc1cc(C(=O)N[C@@H](C)/C=C/c2cnc(Oc3ccc(OCC4CC4)cc3Cl)s2)ccn1` [Compound I-135] gave an IC50 of 42 nM. `CCOC(=O)c1cc(C(=O)N[C@@H](C)/C=C/c2cnc(Oc3ccc(OCC4CC4)cc3Cl)s2)ccn1` [Compound I-136] gave an IC50 of 12 nM. In the case of `Cc1ccc(-c2cc(C(=O)N[C@@H](C)/C=C/c3cnc(Oc4ccc(OCC5CC5)cc4Cl)s3)ccn2)o1` [Compound I-137], the IC50 is reported as 630 nM. `Cc1nc(C)c(-c2cc(C(=O)N[C@@H](C)/C=C/c3cnc(Oc4ccc(OCC5CC5)cc4Cl)s3)ccn2)s1` [Compound I-138] was tested, and the IC50 was 2300 nM. In the case of `C[C@@H](/C=C/c1cnc(Oc2ccc(OCC3CC3)cc2Cl)s1)NC(=O)c1ccnc(-c2ncco2)c1` [Compound I-139], the IC50 is reported as 66 nM. `C[C@@H](/C=C/c1cnc(Oc2ccc(OCC3CC3)cc2Cl)s1)NC(=O)c1cccc(C2=NCCO2)c1` [Compound I-143] showed an IC50 of 800 nM. `C[C@@H](/C=C/c1cnc(Oc2ccc(OCC3CC3)cc2Cl)s1)NC(=O)c1cccc(-c2ncco2)c1` [Compound I-144] gave an IC50 of 690 nM. With `CC(=O)c1ccc(C(=O)N[C@@H](C)/C=C/c2cnc(Oc3ccc(OCC4CC4)cc3Cl)s2)s1` [Compound I-148] the IC50 was 880 nM. Compound `CCN1Cc2ccc(C(=O)N[C@@H](C)/C=C/c3cnc(Oc4ccc(OCC5CC5)cc4Cl)s3)cc2C1=O` [Compound I-154] has an IC50 of 2700 nM.
